From the NIST ThermoML archive (doi:10.1016/j.jct.2013.01.026)

What was measured:
[1] = refractive index (other wavelength) (dimensionless); settings: 298.15 K, 101.3 kPa, Liquid, Standard Abbe refractometry
[2] = refractive index (other wavelength) (dimensionless); wn = mass fraction of the nth substance listed; settings: 298.15 K, 101.3 kPa, Liquid, Standard Abbe refractometry

c1ccc2c(c1)CCCC2 [1,2,3,4-tetrahydronaphthalene]
[1]
Settings	refractive index
Wavelength=670 nm	1.53479
Wavelength=925 nm	1.52642

c1ccc2c(c1)CCCC2 [1,2,3,4-tetrahydronaphthalene] + CCCCCCCCCCCC
refractive index, [2]
Settings	w2 = 0	w2 = 0.1	w2 = 0.1999	w2 = 0.2999	w2 = 0.4001	w2 = 0.4999	w2 = 0.6002	w2 = 0.6999	w2 = 0.8	w2 = 0.9001
Wavelength=670 nm	1.53479	1.51956	1.505	1.49244	1.47987	1.46832	1.45728	1.44674	1.43694	1.42736
Wavelength=925 nm	1.52642	1.51181	1.49762	1.48558	1.47343	1.4622	1.45157	1.44149	1.43179	1.42273

CC(C)Cc1ccccc1 [(2-methylpropyl)benzene]
[1]
Settings	refractive index
Wavelength=670 nm	1.48071
Wavelength=925 nm	1.47345

CC(C)Cc1ccccc1 [(2-methylpropyl)benzene] + CCCCCCCCCCCC
refractive index, [2]
Settings	w2 = 0.0998	w2 = 0.2001	w2 = 0.3002	w2 = 0.4	w2 = 0.4999	w2 = 0.6	w2 = 0.7001	w2 = 0.8002	w2 = 0.9001
Wavelength=670 nm	1.47308	1.46588	1.45898	1.45233	1.44607	1.44006	1.43407	1.42875	1.42337
Wavelength=925 nm	1.46604	1.45912	1.45266	1.44638	1.44043	1.43444	1.42884	1.42387	1.4187

CC(C)Cc1ccccc1 [(2-methylpropyl)benzene] + c1ccc2c(c1)CCCC2
refractive index, [2]
Settings	w2 = 0	w2 = 0.1003	w2 = 0.2	w2 = 0.2999	w2 = 0.3977	w2 = 0.4996	w2 = 0.6002	w2 = 0.699	w2 = 0.8001	w2 = 0.8997
Wavelength=670 nm	1.48071	1.48573	1.49084	1.49587	1.50109	1.50663	1.51197	1.51743	1.52313	1.52865
Wavelength=925 nm	1.47345	1.47803	1.48337	1.48805	1.49344	1.49865	1.50413	1.5092	1.51499	1.52005

CCCCCCCCCCCC [dodecane]
[1]
Settings	refractive index
Wavelength=670 nm	1.41845
Wavelength=925 nm	1.41407

CCCCCCCCCCCC [dodecane] + CC(C)Cc1ccccc1
[2], w1 = 1
Settings	refractive index
Wavelength=670 nm	1.41845
Wavelength=925 nm	1.41407
